The values below come from US4036834A, “Derivatives of 7-(α-hydroxy-substituted pyridyl carboxamido-α p h Δ^3 -cephem-4-carboxylic acid” (Yamanouchi Pharmaceutical Co., Ltd., priority 1974, dated 1977).

One data set has as its system proteus vulgaris OX 19US. Put plainly: MIC against proteus vulgaris OX 19US. It counts as cell-based. The conditions noted are these: OX19US. An excerpt:
(§1) Now, for illustrating the excellent pharmacological effects of the compounds of this invention, the values of MIC (γ/ml) of the compounds against various bacteria are shown in the following table, the compounds of this invention are shown by example numbers.
2. proteus vulgaris OX 19US

For data set [1], the system named is Pseudomonas ovalis IAM 1002. As to the kind of experiment: MIC against Pseudomonas ovalis IAM 1002. It counts as cell-based. Conditions: Pseudomonas putida, IAM1002.
Excerpt: as §1
6: Pseudomonas ovalis IAM 1002

For data set [2], the system named is micrococcus flavus ATCC 10240. Put plainly: MIC against micrococcus flavus ATCC 10240. Conditions: ATCC10240. It counts as cell-based.
Excerpt: as §1

In data set [3] the test system is staphylococcus Shimanishi. Put plainly: MIC against staphylococcus Shimanishi. It counts as cell-based.
Excerpt: as §1
17. staphylococcus Shimanishi

The subject of data set [4] is escherichia coli Kauffman 0-1. Put plainly: MIC against escherichia coli Kauffman 0-1. It is filed as cell-based.
Excerpt: as §1
7: escherichia coli Kauffman 0-1

Data set [5] relates to bacillus megatherium 10778. As to the kind of experiment: MIC against bacillus megatherium 10778. It counts as cell-based.
Excerpt: as §1

Data set [6] concerns Bacillus subtilis ATCC 6633. Put plainly: MIC against Bacillus subtilis ATCC 6633. It is filed as cell-based. Conditions: ATCC6633.
Excerpt: as §1
14: Bacillus subtilis ATCC 6633

In data set [7] the test system is Klebsiella pneumoniae ATCC 10031. Put plainly: MIC against Klebsiella pneumoniae ATCC 10031. It counts as cell-based. The conditions noted are these: Klebsiella pneumoniae, ATCC10031.
Excerpt: as §1
8: Klebsiella pneumoniae ATCC 10031

The test system of the next data set is Proteus vulgaris OXK US. As to the kind of experiment: MIC against Proteus vulgaris OXK US. It is filed as cell-based.
Excerpt: as §1
1: Proteus vulgaris OXK US

In another data set the test system is salmonella enteritidis. As to the kind of experiment: MIC against salmonella enteritidis. It is filed as cell-based. The conditions noted are these: Salmonella enterica.
Excerpt: as §1
10: salmonella enteritidis

Data set [8] has as its system staphylococcus aureus 209P. As to the kind of experiment: MIC against staphylococcus aureus 209P. It counts as cell-based.
Excerpt: as §1
16: staphylococcus aureus 209P

Data set [9] concerns pseudomonas aeruginosa 99 (Gentamycin resistant). Put plainly: MIC against pseudomonas aeruginosa 99 (Gentamycin resistant). It is filed as cell-based.
Excerpt: as §1
5: pseudomonas aeruginosa 99 (Gentamycin resistant)

In data set [10] the test system is Shigella flexnori 2a 1675. Put plainly: MIC against Shigella flexnori 2a 1675. It is filed as cell-based. The conditions noted are these: 2A1675.
Excerpt: as §1

Data set [11] deals with pseudomonas aeruginosa ATCC 8689. Put plainly: MIC against pseudomonas aeruginosa ATCC 8689. Conditions: ATCC8689. It is filed as cell-based.
Excerpt: as §1
4: pseudomonas aeruginosa ATCC 8689

For data set [12], the system named is proteus mirabilis IFM OM-19. Put plainly: MIC against proteus mirabilis IFM OM-19. Conditions: IFMOM19. It counts as cell-based.
Excerpt: as §1
3. proteus mirabilis IFM OM-19

The subject of the next data set is Staphylococcus Onuma. Put plainly: MIC against Staphylococcus Onuma. It counts as cell-based.
Excerpt: as §1

The next data set deals with Shigella sonnei II 37148. Put plainly: MIC against Shigella sonnei II 37148. It is filed as cell-based. The conditions noted are these: II37148.
Excerpt: as §1

For a further data set, the system named is salmonella typhi H901W. As to the kind of experiment: microbe, parasite or virus in culture. The conditions noted are these: Salmonella enterica. It counts as cell-based.
Data set [13] can be described thus: water solubility, naked-eye observation of solutions. It counts as physicochemical. An excerpt:
Then, the experimental results showing the excellent water solubility of the compounds of this invention are illustrated in the following table, the results being the observation results by the naked eyes of the solutions thereof in each concentration as shown in the table.

Setting [14] is: proteus vulgaris OX 19US, read-out: MIC.
The mark [15] stands for this setting: micrococcus flavus ATCC 10240, read-out: MIC.
Setting [16] is: staphylococcus Shimanishi, read-out: MIC.
[17] abbreviates: bacillus megatherium 10778, read-out: MIC.
[18] abbreviates: Bacillus subtilis ATCC 6633, read-out: MIC.
Where [19] appears, read: Proteus vulgaris OXK US, read-out: MIC.

The structures appear in SMILES notation. ≈ marks a conversion by molar mass, not a printed value. Like-named read-outs stand apart in the source and are kept apart here. Bounds are passed on as bounds.

In the case of `CSc1nc(S)cc(SCC2=C(C(=O)O)N3C(=O)[C@@H](NC(=O)[C@H](NC(=O)c4cnccc4O)c4ccccc4)[C@H]3SC2)n1` [Example 7, 7-[D-α-(4-hydroxynicotinoylamido)-α-phenylacetamido]-3-(4-mercapto-2-methylthiopyrimidin-6-yl)thiomethyl-Δ^3-cephem-4-carboxylic acid], the MIC turned out to be 0.39 µg/mL (≈ 0.594 µM) with proteus vulgaris OX 19US (setting [14]); 12.5 µg/mL (≈ 19 µM) in data set [1]; 0.78 µg/mL (≈ 1.19 µM) in data set [2] (setting [15]); 0.78 µg/mL (≈ 1.19 µM) in data set [3] (setting [16]); 25 µg/mL (≈ 38.1 µM) in [4] (escherichia coli Kauffman 0-1, read-out: MIC); 0.39 µg/mL (≈ 0.594 µM) in [5] (setting [17]). The MIC in data set [6] (setting [18]) was 0.19 µg/mL (≈ 0.289 µM); in [7] it was 12.5 µg/mL (≈ 19 µM); in the data set on Proteus vulgaris OXK US (setting [19]) it was 0.78 µg/mL (≈ 1.19 µM); with salmonella enteritidis (salmonella enteritidis, read-out: MIC), 0.39 µg/mL (≈ 0.594 µM); in data set [8] it was 0.19 µg/mL (≈ 0.289 µM); in [9] (Pseudomonas aeruginosa) it was 12.5 µg/mL (≈ 19 µM). Besides, the MIC in [10] turned out to be 12.5 µg/mL (≈ 19 µM); in data set [11] (pseudomonas aeruginosa ATCC 8689, read-out: MIC), 25 µg/mL (≈ 38.1 µM); in data set [12], 0.78 µg/mL (≈ 1.19 µM); in the data set on Staphylococcus Onuma (Staphylococcus Onuma, read-out: MIC), 3.13 µg/mL (≈ 4.77 µM); in the data set with Shigella sonnei II 37148, 25 µg/mL (≈ 38.1 µM); against salmonella typhi H901W, 0.78 µg/mL (≈ 1.19 µM).

As to `CC1=C(C(=O)O)N2C(=O)[C@@H](NC(=O)[C@H](N)c3ccccc3)[C@H]2SC1` [Cephalexin, reference compound], the MIC against proteus vulgaris OX 19US (Proteus vulgaris) amounted to 30 µg/mL (≈ 86.4 µM); in data set [2] (Micrococcus flavus) it was 1.56 µg/mL (≈ 4.49 µM); in data set [3] (Staphylococcus) it was 6.25 µg/mL (≈ 18 µM); in data set [4] (Escherichia coli), 10 µg/mL (≈ 28.8 µM); in data set [5] (Bacillus, 10778), 0.78 µg/mL (≈ 2.25 µM); in data set [6] (Bacillus subtilis), 0.78 µg/mL (≈ 2.25 µM). Besides, the MIC in [7] was 3 µg/mL (≈ 8.64 µM); with Proteus vulgaris OXK US (Proteus vulgaris) it was 30 µg/mL (≈ 86.4 µM); in the data set with salmonella enteritidis (ENTERITIDIS) it was 6.25 µg/mL (≈ 18 µM); in data set [8] it was 1.56 µg/mL (≈ 4.49 µM); in data set [10], 6.25 µg/mL (≈ 18 µM); in data set [11] (Pseudomonas aeruginosa), over 100 µg/mL. In addition, the MIC with Staphylococcus Onuma (Staphylococcus) was 12.5 µg/mL (≈ 36 µM); with Shigella sonnei II 37148 it was 6.25 µg/mL (≈ 18 µM); against salmonella typhi H901W, 6.25 µg/mL (≈ 18 µM).

For the compound `Nc1cc(Cl)cc(SCC2=C(C(=O)O)N3C(=O)C(NC(=O)C(NC(=O)c4cccnc4)c4ccccc4)C3SC2)n1` (stereo not drawn) [Contrast, 7-(α-nicotinoylamido-α-phenylacetamido)-3-(2-amino-4-chloropyidin-6-ylthiomethyl)-Δ ^3-cephem-carboxylic acid, reference compound], the “water solubility (appearance of solution by the naked eyes)” value is given as “clear” in [13] (concentration 1%), “slightly turbid” in data set [13] (concentration 5%), “turbid” in data set [13] (concentration 10%) and “gelled” in data set [13] (concentration 20%).

Consider `O=C(O)C1=C(CSc2ccc(S)nn2)CS[C@@H]2[C@H](NC(=O)[C@H](NC(=O)c3cnccc3O)c3ccccc3)C(=O)N12` [Example 1, 7-[D-α-(4-hydroxynicotinoylamido)-α-phenylacetamido]-3-(3-mercaptopyridazin-6-yl)thiomethyl-Δ^3-cephem-4-carboxylic acid], for which the MIC with proteus vulgaris OX 19US (setting [14]) worked out at 0.78 µg/mL (≈ 1.28 µM); in [1] (Pseudomonas ovalis IAM 1002, read-out: MIC) it was 25 µg/mL (≈ 40.9 µM); in data set [2] (setting [15]), 3.13 µg/mL (≈ 5.13 µM); in [3] (setting [16]), 1.56 µg/mL (≈ 2.55 µM); in data set [4] (Escherichia coli) it was 6.25 µg/mL (≈ 10.2 µM); in [5] (setting [17]), 0.39 µg/mL (≈ 0.639 µM). The MIC in data set [6] (setting [18]) stood at 0.39 µg/mL (≈ 0.639 µM); in data set [7], 6.25 µg/mL (≈ 10.2 µM); in the data set on Proteus vulgaris OXK US (setting [19]) it was 0.19 µg/mL (≈ 0.311 µM); against salmonella enteritidis (ENTERITIDIS), 0.39 µg/mL (≈ 0.639 µM); in [8] (read-out: MIC) it was 0.39 µg/mL (≈ 0.639 µM); in data set [9] (pseudomonas aeruginosa 99 (Gentamycin resistant), read-out: MIC), 50 µg/mL (≈ 81.9 µM). Further, the MIC stood at 6.25 µg/mL (≈ 10.2 µM) in [10]; 100 µg/mL (≈ 164 µM) in data set [11] (Pseudomonas aeruginosa); 0.39 µg/mL (≈ 0.639 µM) in data set [12]; 6.25 µg/mL (≈ 10.2 µM) against Staphylococcus Onuma (Staphylococcus); 12.5 µg/mL (≈ 20.5 µM) against Shigella sonnei II 37148; 0.39 µg/mL (≈ 0.639 µM) in the data set on salmonella typhi H901W.

With `CC(=O)OCC1=C(C(=O)O)N2C(=O)[C@@H](NC(=O)Cc3cccs3)[C@H]2SC1` [Cephalothin, reference compound], the MIC in the data set on proteus vulgaris OX 19US (Proteus vulgaris) is 12.5 µg/mL (≈ 31.5 µM); in [3] (Staphylococcus), 0.39 µg/mL (≈ 0.984 µM); in data set [4] (Escherichia coli), 3.13 µg/mL (≈ 7.9 µM); in data set [6] (Bacillus subtilis), under 0.09 µg/mL; in data set [7] it was 0.78 µg/mL (≈ 1.97 µM); with salmonella enteritidis (ENTERITIDIS), 0.39 µg/mL (≈ 0.984 µM). Also, the MIC was 0.19 µg/mL (≈ 0.479 µM) in data set [8]; over 100 µg/mL in [9] (Pseudomonas aeruginosa); 6.25 µg/mL (≈ 15.8 µM) in data set [10]; over 100 µg/mL in [11] (Pseudomonas aeruginosa); 0.39 µg/mL (≈ 0.984 µM) against Staphylococcus Onuma (Staphylococcus); 6.25 µg/mL (≈ 15.8 µM) in the data set with Shigella sonnei II 37148. Also, the MIC in the data set on salmonella typhi H901W is 1.56 µg/mL (≈ 3.93 µM).
